The target of assay [1] is T1, human Spindlin1_50–262 (Homo sapiens, UniProt Q9Y657). The format is binding. Details: Human Spindlin1_50–262 was cloned into pGEX-6P-1 vector containing an N-terminal GST tag; GST (N, cleaved yes); made in house; host or cells: E. coli BL21(DE3). To be noted: 25 °C; for ΔS / ΔH / K (association constant): ITC, pH 7.5, free wild-type Spindlin1_50–262; for ΔH / N / K (association constant): mean ± SE; for N: ITC stoichiometry, free wild-type Spindlin1_50–262; for K (association constant): One Set of Binding Sites fit. As to the method: Cells were harvested and lysed in lysis buffer: 0.2 M NaCl, 20 mM Tris, pH 8.0 containing 1 mM fresh PMSF. After centrifugation, the GST-tagged Spindlin1_50–262 was purified by a GST affinity column and then the GST tag was cleaved on-column by a home-made P3C protease overnight. The tag-free protein was collected for an anion-exchange chromatography over a HiTrap Q HP column and Superdex G75 columns (GE Healthcare). The Spindlin1_50–262 protein was concentrated to 25 mg/ml in 0.15 M NaCl, 20 mM Tris, pH 8.0, aliquoted and stored at −80 °C for future use. All Spindlin1_50–262 mutants were generated by the QuikChange site-directed mutagenesis strategy and purified using the same procedure as described above.
(§1) Calorimetric experiments were conducted at 25 °C with a MicroCal PEAQ-ITC instrument (Malvern Instruments) as previously described. The Spindlin1_50–262 samples were extensively dialyzed against the buffer containing 20 mM HepesNa (pH 7.5) and 150 mM NaCl. Protein concentration was determined by absorbance spectroscopy at 280 nm. Peptide concentrations were determined by weighing in large quantities. Each ITC titration consisted of 17 successive injections with 0.4 μl for the first and 2.4 μl for the rest. The intervals between injections were 180 s, and the stirring speed was 750 rpm. […] Acquired calorimetric titration data were fitted at 95% confidence and analyzed using Origin 7.0 (GE Healthcare) using the One Set of Binding Sites fitting model. Data represent the mean ± SE. Detailed thermodynamic parameters of each titration are summarized in the Supplementary Table 2.

Assay [2] has as its target Spindlin1_50-262 & HBx2-21 (Homo sapiens, UniProt Q9Y657). To be noted: ITC; for K (association constant): 25 °C, pH 7.5, mean ± SE; for N / ΔH: mean ± SE. The protocol:
Cells were harvested and lysed in lysis buffer: 0.2 M NaCl, 20 mM Tris, pH 8.0 containing 1 mM fresh PMSF. […] The tag-free protein was collected for an anion-exchange chromatography over a HiTrap Q HP column and Superdex G75 columns (GE Healthcare).
as §1, with “Protein” for “Calorimetric experiments were conducted at 25 °C with a MicroCal PEAQ-ITC instrument (Malvern Instruments) as previously described. The Spindlin1_50–262 samples were extensively dialyzed against the buffer containing 20 mM HepesNa (pH 7.5) and 150 mM NaCl. Protein”
A general note: In ITC the heat of successive injections is recorded.

Assay [3] has as its target T1, human Spindlin1_50–262. Put plainly: ITC.
In the next assay the test system is HBeAg. To be noted: ectopic expression in Spindlin1 knockdown cells. The protocol:
(§2) Mutations in full-length Spindlin1 were generated by site-directed mutagenesis and confirmed by DNA sequencing. Plasmid DNA and siRNA transfections were performed using Lipofectamine 3000 reagent (Invitrogen) and Lipofectamine RNAiMAX (Invitrogen) according to the manufacturer’s protocol, respectively.
For infections, cells were incubated with viral supernatants in the presence of 10 µg/ml polybrene.
For siRNA knockdown experiments of HepG2-NTCP cells, the siRNAs (sequences are listed in the Supplementary Table 4) were transfected at 3dpi, and incubated with cells for 24 h. Then the cells were maintained in PMM with 2% FBS with regular medium changing every other day. For cccDNA formation experiment, the siRNAs were transfected 48 h before infection and incubated with cells for 24 h. Then the cells were cultured with PMM medium for another […]. The cells were then infected with HBV at 800GEQ in the presence of 5% PEG8000 for 24 h at 37 °C.
HBeAg levels of HBV infected cells were measured using ELISA kits (Wantai Pharm Inc). Supernatants from HBV infected cells were harvested at each time point examined in the various assays and were diluted 4-fold with DMEM before ELISA.

In another assay the test system is HBx. To be noted: Huh7 cells, 48 h after co-transfection, WB. The protocol:
as §2

In a further assay the test system is HBV RNA. Briefly: Rescue of HBV transcription/expression in Spindlin1 knockdown HepG2-NTCP cells. The format is cell-based. To be noted: ectopic expression in Spindlin1 knockdown cells. The protocol: Cells were harvested with TRIzol™ Reagent (Invitrogen, Carlsbad, CA). The RNA was extracted and precipitated with equal volumes of isopropanol. The RNA pellet was washed with 75% ethanol and dissolved in DEPC-treated H2O. The RNA solution with 1xRNA loading buffer was incubated at 65 °C heat block for 5 min and put on ice for 5 min. Then the RNA sample was subjected to 1.2% agarose gel electrophoresis (with 1xMOPS buffer and 5% formaldehyde solution) and transferred onto Amersham Hybond-N+ membrane (GE Healthcare). After UV crosslinking, the RNA was detected with DIG-labeled full-length HBV genome and DIG-labeled GAPDH probe (DIG-high prime DNA-labeling and detection starter kit II, Roche, cat. No. 11585614910).

The target in assay [4] is T2, Human Spindlin1 50-262 (human, UniProt Q9Y657 50-262).
T2 construct: also called SPIN1; not shown: GST, N-terminal, cleaved
Put plainly: ITC. To be noted: both partners purified.

Assay [5] concerns the target T2, Human Spindlin1 50-262. Put plainly: ITC. To be noted: both partners purified. The source holds these as a separate data set.
In assay [6] the target is T2, Human Spindlin1 50-262. Put plainly: ITC. To be noted: both partners purified. The source holds these as a separate data set.
Assay [7] has as its target T2, Human Spindlin1 50-262. Briefly: ITC. To be noted: both partners purified. This is another data set of the same source.
[8] abbreviates: listed as wild-type (WT) Spindlin1.

The text below walks through data of publication PMC10400593, “Molecular insights into Spindlin1-HBx interplay and its impact on HBV transcription from cccDNA minichromosome” (Nature Communications, 2023).

Several values for one entry are separate records, joined by “and”; a condition that tells them apart may be missing. Equal entries are not always repeated. Entries after “also recorded” stand apart in the source; their conditions may differ. Where two headings read alike, the source gives them in different places. Where no end group is shown, it is not given here.

Spindlin1_50-262 & HBx2-21, sequence (Q9Y657 whole entry, looked up): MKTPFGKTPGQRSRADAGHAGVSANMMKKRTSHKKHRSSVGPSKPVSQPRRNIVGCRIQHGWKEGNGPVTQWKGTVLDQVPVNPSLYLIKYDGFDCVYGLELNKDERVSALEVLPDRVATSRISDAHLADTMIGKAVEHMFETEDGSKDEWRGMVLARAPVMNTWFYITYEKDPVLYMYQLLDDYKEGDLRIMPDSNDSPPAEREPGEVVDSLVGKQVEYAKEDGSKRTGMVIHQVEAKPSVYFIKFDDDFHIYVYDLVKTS
T1 sequence (Q9Y657 50-262): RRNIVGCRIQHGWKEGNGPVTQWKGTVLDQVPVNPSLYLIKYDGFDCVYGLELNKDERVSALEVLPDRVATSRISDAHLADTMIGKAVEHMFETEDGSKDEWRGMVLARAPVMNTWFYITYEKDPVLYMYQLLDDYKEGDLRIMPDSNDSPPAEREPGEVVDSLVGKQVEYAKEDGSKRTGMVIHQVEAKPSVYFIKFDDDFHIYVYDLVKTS
T2 sequence (Q9Y657 50-262): as above

Take “AARLCCQLDPARDVLCLRPV-NH2 [HBx-D2-21, HBx-D N-terminal motif peptide]”: at human Spindlin1_50–262 [1], the ΔS worked out at 18.0 cal/mol/deg and the ΔH is recorded as -3096± 42.71 kal/mol.

As for “AARLCCQLDSARDVLLLRPF-NH2 [WHx, woodchuck HBx N-terminal motif peptide]”, at human Spindlin1_50–262 [1], the ΔS stood at 9.96 cal/mol/deg and the ΔH is reported as -4600± 130.4 kal/mol.

On human Spindlin1_50–262 [1], “AARLCCQLDSSRDVLLLRPL-NH2 [GSHBx, ground squirrel HBx N-terminal motif peptide]” registered a ΔS of 25.3 cal/mol/deg and a ΔH of -987.3± 23.4 kal/mol.

With “ARTK(m e3)QTAR(me2a)KSTGGKAPRKQL-NH2 [H31-20 K4me3R8me2a, histone H3 peptide]”, in assay [2], the ΔS was -22.0 cal/mol/deg, the “K (association constant)” value was 4.74e+07 ± 7.62e+06 M⁻¹, the N turned out to be 1.0± 0.003 and the ΔH is on record as -17040± 96.9 kal/mol. For the same molecule, on human Spindlin1_50–262 [1], the N was determined as 1.0± 0.004, the ΔS is recorded as -23.6 cal/mol/deg, the “K (association constant)” value was determined as 3.2e+07 ± 5.15e+06 M⁻¹ and the ΔH is recorded as -17280± 115.8 kal/mol.

Consider “ARTK(m e3)QTARK(me2)STGGKA-NH2 [H31-15 K4me3K9me2, histone H3 peptide]”, for which, in [2], the ΔS is on record as -12.1 cal/mol/deg, the “K (association constant)” value came to 1.74e+08 ± 9.28e+07 M⁻¹, the N is recorded as 1.0± 0.004 and the ΔH was -14860± 139.6 kal/mol. Further, on human Spindlin1_50–262 [1], the N is 1.0± 0.002, the ΔS is recorded as -15.3 cal/mol/deg, the “K (association constant)” value stood at 4.18e+07 ± 4.82e+06 M⁻¹ and the ΔH is recorded as -14960± 61.22 kal/mol.

With “Ac-CSFSSAGPCALRFTSARRME-NH2 [HBx61-80, HBx array peptide]”, at human Spindlin1_50–262 [1], the ΔS was -1.7 cal/mol/deg and the ΔH was -6319± 252.7 kal/mol.

For the molecule “Ac-GKGGAKRHRK (me3)VLRDNIQGIT-NH2 [H411-30 K20me3, histone H4 peptide]”, the N in assay [2] is 0.9± 0.010 and 1.0± 0.001. On human Spindlin1_50–262 [1], this molecule yielded an N of 1.0± 0.016, a ΔS of -12.3 cal/mol/deg and a ΔH of -12920± 254.2 kal/mol.

On human Spindlin1_50–262 [1], Ac-PARDVLCLRPIGAESRGRPL-NH2 [HBx11-30] yielded a ΔS of 8.2 cal/mol/deg and a ΔH of -3496± 197.8 kal/mol.

In general, stoichiometry N refers to the number of molecules, sites or subunits per partner or assembly. In the assay with human Spindlin1_50–262 [3], HBx2-21 V15R peptide registered a stoichiometry N of 1.

Usually Kd stands for a measure of binding affinity in units of concentration. Lower therefore signals higher affinity. With “HBx_(2–21) peptide (from UniProt Q69607) L18R”, the dissociation constant (Kd) in the assay with human Spindlin1_50–262 [3] came out at 35.8 µM.

Regarding “HBx_(2–21) peptide (from UniProt Q69607) V15R”, the dissociation constant (Kd) with human Spindlin1_50–262 [3] came to 14.4 µM. Against the preceding molecule, the Kd is about 2.5-fold lower.

As for HBx_(11–30) peptide, the fold weaker binding than HBx (2–21) in the assay with human Spindlin1_50–262 [3] is 44 fold.

In the assay with human Spindlin1_50–262 [3], HBx_(61–80) peptide had a fold weaker binding than HBx (2–21) of 55 fold.

As to K216S/V218R double mutant, the “Restoration of HBeAg levels” value in the assay with HBeAg is “not the K216S/V218R double mutant that effectively restored”. The “Interaction with HBx (Co-IP)” value with HBx is “disrupted Spindlin1-HBx engagement both in vitro and in cellular context”; in the assay with HBx (listed as Spindlin1 K216S/V218R), “significantly compromised”.

As for W72R, in the assay with HBV RNA, the “Restoration of HBV transcription/expression” value is “not its H3K4me3 and H3K9me3-binding deficient mutants”.

With “wild-type Spindlin1: ectopically expressed wild-type Spindlin1”, the “Restoration of HBeAg levels” value in the assay with HBeAg was “effectively restored the levels of HBV transcription and HBeAg”; in the assay on HBeAg (setting [8]), “restore the levels of HBV transcription and HBeAg”. Moreover, the “Restoration of HBV transcription/expression” value is “effectively restored the levels of HBV transcription and HBeAg; also recorded: restored HBV expression” in the assay with HBV RNA; “restore the levels of HBV transcription and HBeAg” with HBV RNA (setting [8]).

B1: WHx2-21 peptide (woodchuck HBx) (peptide)
peptide: AARLCCQLDSARDVLLLRPF-NH2
modifications: cysteine pairing not given here
notes: also called FWHx; source: synthetic peptide, bought: Scilight Biotechnology LLC
Consider B1, for which, in the assay with Human Spindlin1 50-262 [4], the dissociation constant Kd turned out to be 2.9 µM. In addition, in the assay with Human Spindlin1 50-262 [5], the Ka came out at 354000 M⁻¹ and the “stoichiometry N” value came out at 0.9.

B2: GSHBx2-21 peptide (ground squirrel HBx) (peptide)
peptide: AARLCCQLDSSRDVLLLRPL-NH2
modifications: cysteine pairing not given here
notes: source: synthetic peptide, bought: Scilight Biotechnology LLC
Turning to B2, in the assay with Human Spindlin1 50-262 [4], binding was characterised by a dissociation constant (Kd) of 0.62 µM. Also, in the assay with Human Spindlin1 50-262 [5], the Ka is 1.83e+06 M⁻¹ and the “stoichiometry N” value worked out at 1.1.

B3: HBx11-30 peptide (peptide)
peptide: Ac-PARDVLCLRPIGAESRGRPL-NH2
notes: as for B2
With B3, the affinity with Human Spindlin1 50-262 [6], expressed as Kd, was 45.9 µM. In the assay with Human Spindlin1 50-262 [5], the Ka stood at 22600 M⁻¹ and the “stoichiometry N” value came to 1.2.

B4: HBx-D2-21 peptide (peptide)
peptide: AARLCCQLDPARDVLCLRPV-NH2
modifications: cysteine pairing not given here
notes: as for B2
Turning to B4, in the assay with Human Spindlin1 50-262 [4], the equilibrium dissociation constant (Kd) came to 0.7 µM. Further, in the assay with Human Spindlin1 50-262 [5], the Ka was found to be 1.56e+06 M⁻¹ and the “stoichiometry N” value came out at 0.951.

B5: H3 1-15 K4me3K9me2 peptide (peptide)
peptide: ARTK(me3)QTARK(me2)STGGKA
notes: also called H3K4me3K9me2; source: synthetic peptide, bought: Scilight Biotechnology LLC
In the assay with Human Spindlin1 50-262 [7], B5 gave a Kd of 0.0242 µM. Further, the Ka with Human Spindlin1 50-262 [5] was determined as 4.18e+07 M⁻¹.

B6: HBx61-80 peptide (peptide)
peptide: Ac-CSFSSAGPCALRFTSARRME-NH2
modifications: cysteine pairing not given here
notes: as for B2
In the case of B6, the Kd in the assay with Human Spindlin1 50-262 [6] stood at 55.5 µM. For the same molecule, in the assay with Human Spindlin1 50-262 [5], the Ka came to 18200 M⁻¹ and the “stoichiometry N” value came out at 1.
